Reference: ChEMBL document CHEMBL3232975, “Using ovality to predict nonmutagenic, orally efficacious pyridazine amides as cell specific spleen tyrosine kinase inhibitors” (J Med Chem, 2014)
≈ marks a conversion by molar mass, not a printed value.

Experiments:
[1] = Metabolic stability in human liver microsomes; assay type: ADME; conditions: read-out: Stability
[2] = Solubility of the compound by LYSA; assay type: physicochemical
[3] = Metabolic stability in rat liver microsomes; assay type: ADME; conditions: read-out: Stability
[4] = Apparent terminal half life in mouse at 1 mg/kg, iv; assay type: ADME, organism-based; design: dose 1 mg/kg, route intravenous; conditions: in vivo, read-out: betat1/2(app) (converted)
[5] = Oral bioavailability in mouse at 10 to 20 mg/kg; assay type: ADME, organism-based; conditions: in vivo
[6] = test system: Mus musculus; assay: Dose-normalized AUC in mouse at 10 to 20 mg/kg, po; assay type: ADME, organism-based; design: dose 10-20 mg/kg, route oral; conditions: in vivo
[7] = Volume of distribution at steady state in mouse at 1 mg/kg, iv; assay type: ADME, organism-based; design: dose 1 mg/kg, route intravenous; conditions: in vivo, read-out: Vdss
[8] = Total plasma clearance in mouse at 1 mg/kg, iv; assay type: ADME, organism-based; design: dose 1 mg/kg, route intravenous
[9] = test system: Mus musculus; assay: Dose-normalized AUC in mouse at 5 mg/kg, po; assay type: ADME, organism-based; design: dose 5 mg/kg, route oral; conditions: in vivo
[10] = test system: Mus musculus; assay: Dose-normalized AUC in mouse at 30 mg/kg, po; assay type: ADME, organism-based; design: dose 30 mg/kg, route oral; conditions: in vivo
[11] = Apparent terminal half life in mouse at 0.5 mg/kg, iv; assay type: ADME, organism-based; design: dose 0.5 mg/kg, route intravenous; conditions: in vivo, read-out: betat1/2(app) (converted)
[12] = Total plasma clearance in mouse at 0.5 mg/kg, iv; assay type: ADME, organism-based; design: dose 0.5 mg/kg, route intravenous
[13] = Oral bioavailability in mouse at 30 mg/kg; assay type: ADME, organism-based; conditions: in vivo
[14] = Cmax in mouse at 30 mg/kg, po; assay type: ADME, organism-based; design: dose 30 mg/kg, route oral; conditions: in vivo
[15] = Volume of distribution at steady state in mouse at 0.5 mg/kg, iv; assay type: ADME, organism-based; design: dose 0.5 mg/kg, route intravenous; conditions: in vivo, read-out: Vdss
[16] = Cmax in mouse at 5 mg/kg, po; assay type: ADME, organism-based; design: dose 5 mg/kg, route oral; conditions: in vivo
[17] = Oral bioavailability in mouse at 5 mg/kg; assay type: ADME, organism-based; conditions: in vivo

Row | Structure (SMILES) | CLhep predicted [1] | solubility [2] | CLhep predicted [3] | half-life [4] | bioavailability [5] | AUC/dose [6] | Vd [7] | clearance [8] | other results
1 | NC(=O)c1nnc(N[C@@H]2CCCC[C@@H]2N)cc1Nc1ccc2c(n1)CCC2 | 2 mL/min/kg | 404 µg/mL (≈ 1100 µM) | 27 mL/min/kg | – | – | – | – | – | –
2 | COc1ccc(Nc2cc(N[C@@H]3CCOC[C@@H]3N)nnc2C(N)=O)nc1C(C)C | – | – | – | 1.96 h | 92% | 365 ng/mL.hr/(mg/kg) | 3.67 L/kg | 42.2 mL/min/kg | –
3 | CCCc1nc(Nc2cc(NCCN)nnc2C(N)=O)ccc1OC | – | – | – | 1.28 h | 75% | 1470 ng/mL.hr/(mg/kg) | 0.63 L/kg | 8.52 mL/min/kg | –
4 | Cc1ccc(Nc2cc(N[C@@H]3CCCC[C@@H]3N)nnc2C(N)=O)nc1C | 1 mL/min/kg | 329 µg/mL (≈ 926 µM) | 23 mL/min/kg | – | – | – | – | – | AUC/dose [9]: 25.9 ng/mL.hr/(mg/kg)
5 | COc1ccc(Nc2cc(N[C@@H]3CCCC[C@@H]3N)nnc2C(N)=O)nc1OC | 2 mL/min/kg | 522 µg/mL (≈ 1350 µM) | 14 mL/min/kg | – | – | – | – | – | –
6 | Cc1nc(Nc2cc(N[C@@H]3CCCC[C@@H]3N)nnc2C(N)=O)ccc1F | 3 mL/min/kg | 390 µg/mL (≈ 1090 µM) | 18 mL/min/kg | – | – | – | – | – | AUC/dose [10]: 568 ng/mL.hr/(mg/kg); half-life [11]: 3.26 h; clearance [12]: 5.57 mL/min/kg; bioavailability [13]: 20%; Cmax [14]: 1560 ng/mL; Vd [15]: 1.44 L/kg
7 | Cc1nc(Nc2cc(N[C@@H]3CCCC[C@@H]3N)nnc2C(N)=O)ccc1Cl | 7 mL/min/kg | 345 µg/mL (≈ 918 µM) | 20 mL/min/kg | – | – | – | – | – | AUC/dose [10]: 9753 ng/mL.hr/(mg/kg); AUC/dose [9]: 970 ng/mL.hr/(mg/kg); half-life [11]: 3.92 h; clearance [12]: 8.65 mL/min/kg; Cmax [16]: 386 ng/mL; bioavailability [17]: 51%; bioavailability [13]: 40%; Cmax [14]: 144 ng/mL; Vd [15]: 2.74 L/kg
8 | COc1ccc(Nc2cc(NCCN)nnc2C(N)=O)nc1C(C)C | – | – | – | 1.74 h | 61% | 609 ng/mL.hr/(mg/kg) | 1.4 L/kg | 16.7 mL/min/kg | –
9 | Cc1cccc(Nc2cc(N[C@@H]3CCCC[C@@H]3N)nnc2C(N)=O)n1 | 2 mL/min/kg | 471 µg/mL (≈ 1380 µM) | 27 mL/min/kg | – | – | – | – | – | –
